Values of other authors, collected in patent publication US10105405B2, “Compositions and methods for enhancing brain function using acetyl-L-carnitine, huperzine A and ginkgo biloba” (priority 2006, dated 2018).

Test system: aged subjects, patients with benign senescent forgetfulness, Alzheimer's disease (AD) and vascular dementia (VD)

## C/C=C1\[C@H]2C=C(C)C[C@]1(N)c1ccc(=O)[nH]c1C2 [Huperzine A]
Clinical trials in China
  memory deficits: significantly relieves memory deficits
Compared with other AChEIs in use
  peripheral cholinergic side effects: minimal peripheral cholinergic side effects
